For this assay, the system named is soybean plants. Description: Pre- and post-emergence dicamba tolerance of transgenic soybean. The class given is in vivo. The settings on record: wild type soybean; dicamba at post-V3 stage at 1 lb/a rate.

Text: Several DMO expression units were constructed by operably linking one of each various promoters, CTPs, DMO variants, and 3′UTRs to obtain efficient DMO expression units for product development.

For `COc1c(Cl)ccc(Cl)c1C(=O)O` [dicamba, 3,6-dichloro-o-anisic acid], the injury rate is recorded as 60%.

The record behind these values is patent US8420888B2, “Chloroplast transit peptides for efficient targeting of DMO and uses thereof” (Monsanto Technology LLC, priority 2007, dated 2013).
